# Structures can show the parent of a compound that is named as a salt.
# Assays:
# [1] = biological target: recombinant human enteropeptidase (Homo sapiens (Human), UniProt P98073); assay: Measurement of enteropeptidase inhibitory activity; type: biochemical; settings: for Ki: recombinant human enteropeptidase, Gly-Asp-Asp-Asp-Asp-Lys-β-Naphtylamide substrate, Dixon plot
# Method: Measurement of Enteropeptidase Inhibitory Activity
# Using a 96 well plate (#3915, Costar), a test compound (25 μL), 400 mM Tris-HCl buffer (pH 8.0, 25 μL) and 0.5 mg/mL fluorescence enzyme substrate (Gly-Asp-Asp-Asp-Asp-Lys-β-Naphtylamide, 25 μL) were mixed, and recombinant human enteropeptidase (R&D Systems, Inc., 25 μL) was added. Using a fluorescence plate reader fmax (Molecular Devices, Inc.), the reaction rate was measured from the time-course changes at excitation wavelength 320 nm and fluorescence wavelength 405 nm. The Ki value was calculated from the concentration of the test compound, reciprocal of reaction rate, and Km value of the enzyme substrate, and by using Dixon plot.
# [2] = biological target: human trypsin (Homo sapiens, UniProt P07477); assay: Measurement of trypsin inhibitory activity; type: biochemical; settings: for Ki: human trypsin, Boc-Phe-Ser-Arg-AMC substrate, Dixon plot
# Method: Measurement of Trypsin Inhibitory Activity
# Using a 96 well plate (#3915, Costar), a test compound (25 μL) was mixed with 20 μM fluorescence enzyme substrate (Boc-Phe-Ser-Arg-AMC, 50 μL) mixed with 200 mM Tris-HCl buffer (pH 8.0), and human trypsin (Sigma, 25 μL) was added. Using a fluorescence plate reader fmax (Molecular Devices, Inc.), the reaction rate was measured from the time-course changes at excitation wavelength 355 nm and fluorescence wavelength 460 nm. The Ki value was calculated from the concentration of the test compound, reciprocal of reaction rate, and Km value of the enzyme substrate, and by using Dixon plot.
# [3] = test system: KK-A^y/JCL mice; assay: Evaluation of antidiabetic action (Experimental Example 4); type: in vivo; settings: mixed in feed for one week, versus control group
# From the text: Evaluation of Antidiabetic Action KK-A^y/JCL mice (male, 5- to 7-week-old, CLEA Japan, Inc.) known to spontaneously develop obese type 2 diabetes were purchased and, after one week of preliminary rearing period, grouped (6 per group) with the body weight and non-fasting blood glucose levels as indices. The animals were individually housed in a polycarbonate cage and allowed to drink water freely from a watering bottle. […] CRF-1 alone was given to the control group. After one week of dosing period, the blood (6 μL) was drawn from the tail vein of the animals, and the blood glucose level was measured by ACCU-CHEK Aviva (Roche Diagnostics K.K.). A significant difference from the control group was detected by Dunnett's multiple comparison test or Student's t-test (significance level less than 5%).
# Sequence of recombinant human enteropeptidase (P98073 whole entry): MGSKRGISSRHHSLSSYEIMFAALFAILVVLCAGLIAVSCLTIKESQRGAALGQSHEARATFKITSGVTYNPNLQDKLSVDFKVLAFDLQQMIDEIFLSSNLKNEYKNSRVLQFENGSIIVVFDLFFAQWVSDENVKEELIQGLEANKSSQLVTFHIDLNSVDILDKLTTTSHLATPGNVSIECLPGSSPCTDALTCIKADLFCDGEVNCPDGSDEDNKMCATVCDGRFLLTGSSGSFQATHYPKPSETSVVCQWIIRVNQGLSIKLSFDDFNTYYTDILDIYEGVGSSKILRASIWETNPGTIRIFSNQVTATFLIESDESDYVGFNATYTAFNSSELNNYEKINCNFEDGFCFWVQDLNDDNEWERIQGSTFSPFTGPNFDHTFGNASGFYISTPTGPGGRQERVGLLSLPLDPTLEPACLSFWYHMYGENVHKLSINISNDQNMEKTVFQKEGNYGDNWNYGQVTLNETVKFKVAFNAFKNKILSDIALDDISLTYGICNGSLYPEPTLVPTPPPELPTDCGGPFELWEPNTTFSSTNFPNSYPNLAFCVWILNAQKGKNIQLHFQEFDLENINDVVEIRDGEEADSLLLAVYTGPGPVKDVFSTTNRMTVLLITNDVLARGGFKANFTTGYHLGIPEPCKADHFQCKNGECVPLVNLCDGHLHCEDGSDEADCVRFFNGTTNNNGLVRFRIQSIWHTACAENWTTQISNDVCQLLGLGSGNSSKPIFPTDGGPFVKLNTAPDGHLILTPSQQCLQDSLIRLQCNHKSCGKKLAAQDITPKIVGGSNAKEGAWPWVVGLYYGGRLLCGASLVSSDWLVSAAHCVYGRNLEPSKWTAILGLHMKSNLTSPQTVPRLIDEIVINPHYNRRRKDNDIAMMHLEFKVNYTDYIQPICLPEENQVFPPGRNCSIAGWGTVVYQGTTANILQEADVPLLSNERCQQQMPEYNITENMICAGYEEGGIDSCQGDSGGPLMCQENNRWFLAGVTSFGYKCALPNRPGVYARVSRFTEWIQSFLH
SMILES,Ki [1] [nM],Ki [2] [nM],enteropeptidase inhibitory activity (in words) ([1]; summary statement),trypsin inhibitory activity (in words) ([2]; summary statement),hypoglycemic action [3]
"N=C(N)c1ccc(OC(=O)c2ccc(CNC3(C(=O)N[C@@H](CC(=O)O)C(=O)O)CC3)s2)c(F)c1 [B-37, N-(1-{[5-(4-amidino-2-fluorophenoxycarbonyl)thiophen-2-yl]methylamino}cyclopropanecarbonyl)-L-aspartic acid bis(trifluoroacetate)]",1.27,1.57,,,
"CN(Cc1ccc(C(=O)Oc2ccc(C(=N)N)cc2F)s1)[C@H](Cc1ccccc1)C(=O)N[C@H](CC(=O)O)C(=O)O [B-59, N—(N-{5-[(4-amidino-2-fluorophenoxy)carbonyl]thiophen-2-yl}methyl-N-methyl-D-phenylalanyl)-D-aspartic acid bis(trifluoroacetate)]",0.98,3.31,,,
CC(C)C[C@@H](C(=O)N[C@@H](CC(=O)O)C(=O)O)N(C)Cc1ccc(C(=O)Oc2ccc(C(=N)N)cc2F)s1 [B-35],0.53,0.81,,,
"CC(C)[C@H](C(=O)N[C@@H](CC(=O)O)C(=O)O)N(C)Cc1ccc(C(=O)Oc2ccc(C(=N)N)cc2F)s1 [B-27, N—(N-{[5-(4-amidino-2-fluorophenoxycarbonyl)thiophen-2-yl]methyl}-N-methyl-D-valyl)-L-aspartic acid bis(trifluoroacetate)]",0.78,0.68,,,
"CC(C)[C@@H](C(=O)N[C@@H](CC(=O)O)C(=O)O)N(C)Cc1ccc(C(=O)Oc2ccc(C(=N)N)cc2)o1 [A-14, N—(N-{[5-(4-amidinophenoxycarbonyl)furan-2-yl]methyl}-N-methyl-L-valyl)-L-aspartic acid bis(trifluoroacetate)]",0.56,0.45,,,
"N=C(N)c1ccc(OC(=O)c2ccc(Cn3cccc3C(=O)O)s2)c(F)c1 [B-42, N-{[5-(4-amidino-2-fluorophenoxycarbonyl)thiophen-2-yl]methyl}-1H-pyrrole-2-carboxylic acid trifluoroacetate]",0.61,0.82,,,
"C=CCN(CC(=O)N[C@@H](CC(=O)O)C(=O)O)C(=O)CCc1ccc(C(=O)Oc2ccc(C(=N)N)cc2F)s1 [B-56, N—[N-allyl-N-(3-{5-[(4-amidino-2-fluorophenoxy)carbonyl]thiophen-2-yl}propanoyl)glycyl]-L-aspartic acid trifluoroacetate]",0.77,0.43,,,
"N=C(N)c1ccc(OC(=O)c2ccc(CCC(=O)N[C@@H](CC(=O)O)C(=O)O)s2)c(F)c1.O=C(O)C(F)(F)F [reference compound A, N-{3-[5-(4-amidino-2-fluorophenoxycarbonyl)thiophen-2-yl]propanoyl}-L-aspartic acid trifluoroacetate, reference compound]",1.36,,superior,superior,significant hypoglycemic action
CN(Cc1ccc(C(=O)Oc2ccc(C(=N)N)cc2)o1)C(=O)N[C@@H](CC(=O)O)C(=O)O [A-20],0.94,0.54,,,
C=CCN(CC(=O)O)C(=O)[C@@H]1CSCN1Cc1ccc(C(=O)Oc2ccc(C(=N)N)cc2F)s1 [B-21],1,0.38,,,
CC(C)[C@@H](C(=O)N[C@@H](CC(=O)O)C(=O)O)N(C)Cc1ccc(C(=O)Oc2ccc(C(=N)N)cc2F)s1 [B-23],0.75,0.44,,,
"C=CCN(C(=O)CN1CCc2cc(C(=O)Oc3ccc(C(=N)N)cc3F)sc2C1)[C@@H](CCC(=O)O)C(=O)O [B-45, N-allyl-N-({2-[(4-amidino-2-fluorophenoxy)carbonyl]-4,5-dihydrothieno[2,3-c]pyridin-6(7H)-yl}acetyl)-L-glutamic acid bis(trifluoroacetate)]",0.62,0.71,,,
CC(C)C[C@@H](C(=O)N[C@H](CCC(=O)O)C(=O)O)N(C)Cc1ccc(C(=O)Oc2ccc(C(=N)N)cc2F)s1 [B-36],0.61,0.89,,,
CC(C)C[C@@H](C(=O)N[C@@H](CCC(=O)O)C(=O)O)N(C)Cc1ccc(C(=O)Oc2ccc(C(=N)N)cc2F)s1 [B-32],0.9,0.7,,,
"N=C(N)c1ccc(OC(=O)c2cc3c(s2)CN(C(=O)N[C@@H](CC(=O)O)C(=O)O)CC3)c(F)c1 [B-55, N-{[2-(4-amidino-2-fluorophenoxycarbonyl)-4,5,6,7-tetrahydrothieno[2,3-c]pyridin-6-yl]carbonyl}-L-aspartic acid trifluoroacetate]",0.2,0.24,,,
CC(C)N(Cc1ccc(C(=O)Oc2ccc(C(=N)N)cc2)o1)C(=O)N[C@@H](CC(=O)O)C(=O)O [A-21],0.38,0.84,,,
"N=C(N)c1ccc(OC(=O)c2cc3c(s2)CN(CC(=O)O)CC3)c(F)c1 [B-43, {2-[(4-amidino-2-fluorophenoxy)carbonyl]-4,5-dihydrothieno[2,3-c]pyridin-6(7H)-yl}acetic acid bis(trifluoroacetate)]",0.69,0.56,,,
CC(C)[C@@H](C(=O)N[C@@H](CCC(=O)O)C(=O)O)N(C)Cc1ccc(C(=O)Oc2ccc(C(=N)N)cc2F)s1 [B-26],1,0.38,,,

# Continued, in another order:
Ki [1] [nM],Ki [2] [nM],enteropeptidase inhibitory activity (in words) ([1]; summary statement),trypsin inhibitory activity (in words) ([2]; summary statement),SMILES,hypoglycemic action [3]
0.33,0.69,,,CC(C)N(Cc1ccc(C(=O)Oc2ccc(C(=N)N)cc2F)s1)C(=O)N[C@@H](CC(=O)O)C(=O)O [B-47],
0.78,0.64,,,C=CCN(CC(=O)O)C(=O)[C@@H]1CCCN1Cc1ccc(C(=O)Oc2ccc(C(=N)N)cc2F)s1 [B-11],
0.53,0.42,,,"N=C(N)c1ccc(OC(=O)c2ccc(CN3CCC[C@@H]3C(=O)N(CCC(=O)O)CC(=O)O)s2)c(F)c1 [B-60, N-{5-[(4-amidino-2-fluorophenoxy)carbonyl]thiophen-2-yl}methyl-D-proline N-(2-carboxyethyl)-N-carboxymethylamide bis(trifluoroacetate)]",
0.69,0.52,,,N=C(N)c1ccc(OC(=O)c2ccc(CN3CCC[C@@H]3C(=O)N[C@H](CC(=O)O)C(=O)O)s2)c(F)c1 [B-15],
0.24,0.25,,,N=C(N)c1ccc(OC(=O)c2ccc(CN3CCC[C@H]3C(=O)N[C@@H](CS(=O)(=O)O)C(=O)O)s2)c(F)c1 [B-10],
0.82,0.24,,,N=C(N)c1ccc(OC(=O)c2ccc(CN3CCC[C@@H]3C(=O)N[C@@H](CS(=O)(=O)O)C(=O)O)o2)cc1 [A-5],
0.43,0.29,,,N=C(N)c1ccc(OC(=O)c2ccc(CN3CCC[C@@H]3C(=O)N[C@@H](CC(=O)O)C(=O)O)s2)c(F)c1 [B-13],
0.95,1.14,,,N=C(N)c1ccc(OC(=O)c2ccc(CN3CCC[C@@H]3C(=O)N[C@@H](CS(=O)(=O)O)C(=O)O)s2)cc1 [B-12],
0.65,0.97,,,N=C(N)c1ccc(OC(=O)c2ccc(CN3CCC[C@H]3C(=O)N[C@@H](CS(=O)(=O)O)C(=O)O)o2)cc1 [A-10],
0.44,0.92,,,N=C(N)c1ccc(OC(=O)c2ccc(CN3CCCC[C@H]3C(=O)N[C@@H](CC(=O)O)C(=O)O)s2)c(F)c1 [B-18],
0.67,0.08,,,N=C(N)c1ccc2cc(OC(=O)c3ccc(CN4CCC[C@@H]4C(=O)N[C@@H](CS(=O)(=O)O)C(=O)O)o3)ccc2c1 [A-6],
0.24,0.19,,,N=C(N)c1ccc(OC(=O)c2ccc(CN3CCC[C@@H]3C(=O)N[C@@H](CS(=O)(=O)O)C(=O)O)s2)c(F)c1 [B-14],
0.15,0.21,,,N=C(N)c1ccc(OC(=O)c2ccc(CN3CSC[C@H]3C(=O)N[C@@H](CC(=O)O)C(=O)O)s2)c(F)c1 [B-20],
0.38,0.87,,,CN(Cc1ccc(C(=O)Oc2ccc(C(=N)N)cc2F)s1)C(=O)N[C@@H](CC(=O)O)C(=O)O [B-46],
